In patent US9113629B2, “4-amino-6-(4-substituted-phenyl)-picolinates and 6-amino-2-(4-substituted-phenyl)-pyrimidine-4-carboxylates and their use as herbicides” (DOW AGROSCIENCES LLC, priority 2013, dated 2015):

Assays:
Experiment in all cases: Post-emergent Test I herbicidal activity
Type in all cases: in vivo
[1] = test system: HELAN: sunflower (Helianthus annuus); settings: post-emergence, 336 h, read-out: Visual Growth Reduction (%) 14 Days After Application, HELAN; for pest or weed control at 3840 g/ha: 3.84 kg ai/ha; for pest or weed control at 4000 g/ha: 4 kg ai/ha; for pest or weed control at 3960 g/ha: 3.96 kg ai/ha; for pest or weed control at 4040 g/ha: 4.04 kg ai/ha
Description: (§1) Post-emergent Test I Seeds test species were obtained from commercial suppliers and planted into a 13 cm diameter-round pot containing soil-less media mix (metro-mix 360®, Sun Gro Horticulture). Postemergence treatments were planted 8-12 days prior to application and cultured in a greenhouse equipped with supplemental light sources to provide a 16 h photoperiod at 24-29° C. All pots were surface irrigated.
(§2) A weighted amount, determined by the highest rate to be tested, of each compound was dissolved in 1.3 mL acetone-DMSO (97:3, v/v) and diluted with 4.1 mL water-isopropanol-crop oil concentrate (78:20:2, v/v/v) containing 0.02% Triton X-155 to obtain concentrated stock solutions. Additional application rates were obtained by serial dilution of the high rate solution into a solution containing appropriate volume of 97:3 v/v mixture of acetone and DMSO and appropriate volume of an aqueous mixture of water, isopropyl alcohol, crop oil concentrate (78:20:2, v/v/v) containing 0.02% Triton X-155.
(§3) Formulated compounds were applied using a DeVilbiss® compressed air sprayer at 2-4 psi. Following treatment, pots were returned to the greenhouse for the duration of the experiment. All pots were sub-irrigated as need to provide optimum growing conditions. All pots were fertilized one time per week by subirrigating with Peters Peat-Lite Special® fertilizer (20-10-20).
(§4) […] All evaluations were made visually on a scale of 0 to 100 where 0 represents no activity and 100 represents complete plant death. Visual assessments of plant injury were made based on growth reduction, discoloration, leaf deformity and necrosis.

[2] = test system: IPOHE: ivyleaf morningglory (Ipomoea hederecea); settings: post-emergence, 336 h, read-out: Visual Growth Reduction (%) 14 Days After Application, IPOHE; for pest or weed control at 3840 g/ha: 3.84 kg ai/ha; for pest or weed control at 4000 g/ha: 4 kg ai/ha; for pest or weed control at 3960 g/ha: 3.96 kg ai/ha; for pest or weed control at 4040 g/ha: 4.04 kg ai/ha
Description: as §1, §2, §3, §4

[3] = test system: SETFA: giant foxtail (Setaria faberi); settings: post-emergence, 336 h, read-out: Visual Growth Reduction (%) 14 Days After Application, SETFA; for pest or weed control at 3840 g/ha: 3.84 kg ai/ha; for pest or weed control at 4000 g/ha: 4 kg ai/ha; for pest or weed control at 3960 g/ha: 3.96 kg ai/ha; for pest or weed control at 4040 g/ha: 4.04 kg ai/ha
Description: as §1, §2, §3, §4

[4] = test system: AMARE: redroot pigwseed (Amaranthus retroflexus); settings: post-emergence, read-out: Visual Growth Reduction (%), AMARE; for pest or weed control at 3840 g/ha: 3.84 kg ai/ha; for pest or weed control at 4000 g/ha: 4 kg ai/ha
Description: as §1, §2, §3, §4

[5] = test system: AVEFA: wild oats (Avena fatua); settings: post-emergence, 336 h, read-out: Visual Growth Reduction (%) 14 Days After Application, AVEFA; for pest or weed control at 3840 g/ha: 3.84 kg ai/ha; for pest or weed control at 4000 g/ha: 4 kg ai/ha; for pest or weed control at 3960 g/ha: 3.96 kg ai/ha
Description: as §1, §2, §3, §4

[6] = test system: ECHCG: barnyardgrass (Echinochloa crus-galli); settings: post-emergence, 336 h, read-out: Visual Growth Reduction (%) 14 Days After Application, ECHCG; for pest or weed control at 3840 g/ha: 3.84 kg ai/ha; for pest or weed control at 4000 g/ha: 4 kg ai/ha; for pest or weed control at 3960 g/ha: 3.96 kg ai/ha; for pest or weed control at 4040 g/ha: 4.04 kg ai/ha
Description: as §1, §2, §3, §4

Work on `COC(=O)c1nc(-c2ccc(C#N)cc2F)cc(N)c1Cl` [Compound 16] yielded a pest or weed control at 3840 g/ha [1] of 95 to 100%, a pest or weed control at 3840 g/ha [2] of 95 to 100% and a pest or weed control at 3840 g/ha [3] of 60 to 74%. It also gave a pest or weed control at 3840 g/ha [4] of 95 to 100%, a pest or weed control at 3840 g/ha [5] of 0 to 29% and a pest or weed control at 3840 g/ha [6] of 45 to 59%.
For `Nc1c(F)c(-c2ccc(Br)cc2)nc(C(=O)O)c1Cl` [Compound 20], the pest or weed control at 4000 g/ha [1] was 95 to 100%, the pest or weed control at 4000 g/ha [2] was 85 to 94% and the pest or weed control at 4000 g/ha [3] was 95 to 100%. It also gave a pest or weed control at 4000 g/ha [5] of 75 to 84% and a pest or weed control at 4000 g/ha [6] of 95 to 100%.
In the case of `N#Cc1ccc(-c2nc(C(=O)O)c(Cl)c(N)c2F)cc1` [Compound 39], the pest or weed control at 2000 g/ha ([1]; 2 kg ai/ha) is reported as 95 to 100%, the pest or weed control at 2000 g/ha ([2]; 2 kg ai/ha) is reported as 60 to 74% and the pest or weed control at 2000 g/ha ([4]; 2 kg ai/ha) is reported as 95 to 100%. For the same molecule, the pest or weed control at 2000 g/ha ([5]; 2 kg ai/ha) was 75 to 84% and the pest or weed control at 2000 g/ha ([6]; 2 kg ai/ha) was 85 to 94%.
With `Nc1c(F)c(-c2ccc(I)cc2)nc(C(=O)O)c1Cl` [Compound 45, 4-amino-3-chloro-5-fluoro-6-(4-iodophenyl)picolinic acid] the pest or weed control at 3960 g/ha [1] was 95 to 100%, the pest or weed control at 3960 g/ha [2] was 85 to 94% and the pest or weed control at 3960 g/ha [3] was 95 to 100%. It also gave a pest or weed control at 3960 g/ha ([4]; 3.96 kg ai/ha) of 95 to 100%, a pest or weed control at 3960 g/ha [5] of 95 to 100% and a pest or weed control at 3960 g/ha [6] of 95 to 100%.
With `COC(=O)c1nc(-c2ccc(OC(F)F)cc2)c(F)c(N)c1Cl` [Compound 85] the pest or weed control at 3760 g/ha ([1]; 3.76 kg ai/ha) was 95 to 100%, the pest or weed control at 3760 g/ha ([2]; 3.76 kg ai/ha) was 30 to 44% and the pest or weed control at 3760 g/ha ([3]; 3.76 kg ai/ha) was 85 to 94%. The pest or weed control at 3760 g/ha ([4]; 3.76 kg ai/ha) was 95 to 100%, the pest or weed control at 3760 g/ha ([5]; 3.76 kg ai/ha) was 30 to 44% and the pest or weed control at 3760 g/ha ([6]; 3.76 kg ai/ha) was 95 to 100%.
`COC(=O)c1nc(-c2ccc(Br)c(F)c2F)c(F)c(N)c1Cl` [Compound 109, methyl 4-amino-6-(4-bromo-2,3-difluorophenyl)-3-chloro-5-fluoropicolinate] was tested, and the pest or weed control at 4000 g/ha [1] was 95 to 100%, the pest or weed control at 4000 g/ha [2] was 85 to 94% and the pest or weed control at 4000 g/ha [3] was 95 to 100%. For the same molecule, the pest or weed control at 4000 g/ha [5] was 75 to 84% and the pest or weed control at 4000 g/ha [6] was 95 to 100%.
`COC(=O)c1nc(-c2ccc(Br)c(F)c2F)cc(N)c1Cl` [Compound 114, methyl 4-amino-6-(4-bromo-2,3-difluorophenyl)-3-chloropicolinate] gave a pest or weed control at 3920 g/ha ([1]; 3.92 kg ai/ha) of 95 to 100%, a pest or weed control at 3920 g/ha ([2]; 3.92 kg ai/ha) of 85 to 94% and a pest or weed control at 3920 g/ha ([3]; 3.92 kg ai/ha) of 75 to 84%. For the same molecule, the pest or weed control at 3920 g/ha ([4]; 3.92 kg ai/ha) was 95 to 100%, the pest or weed control at 3920 g/ha ([5]; 3.92 kg ai/ha) was 0 to 29% and the pest or weed control at 3920 g/ha ([6]; 3.92 kg ai/ha) was 95 to 100%.
In the case of `COC(=O)c1nc(-c2ccc(I)cc2)c(F)c(N)c1Cl` [Compound 118, Methyl 4-amino-6-(4-iodophenyl)-3-chloro-5-fluoropicolinate], the pest or weed control at 2320 g/ha ([1]; 2.32 kg ai/ha) is reported as 95 to 100%, the pest or weed control at 2320 g/ha ([2]; 2.32 kg ai/ha) is reported as 95 to 100% and the pest or weed control at 2320 g/ha ([3]; 2.32 kg ai/ha) is reported as 95 to 100%. The pest or weed control at 2320 g/ha ([4]; 2.32 kg ai/ha) was 95 to 100%, the pest or weed control at 2320 g/ha ([5]; 2.32 kg ai/ha) was 95 to 100% and the pest or weed control at 2320 g/ha ([6]; 2.32 kg ai/ha) was 95 to 100%.
In the case of `COC(=O)c1nc(-c2ccc(Br)cc2)c(F)c(N)c1Cl` [Compound 138, Methyl 4-amino-6-(4-bromophenyl)-3-chloro-5-fluoropicolinate], the pest or weed control at 4000 g/ha [1] is reported as 95 to 100%, the pest or weed control at 4000 g/ha [2] is reported as 95 to 100% and the pest or weed control at 4000 g/ha [3] is reported as 95 to 100%. For the same molecule, the pest or weed control at 4000 g/ha [4] was 95 to 100%, the pest or weed control at 4000 g/ha [5] was 75 to 84% and the pest or weed control at 4000 g/ha [6] was 95 to 100%.
Work on `COC(=O)c1nc(-c2ccc(C#N)cc2)c(F)c(N)c1Cl` [Compound 142] yielded a pest or weed control at 3840 g/ha [1] of 95 to 100%, a pest or weed control at 3840 g/ha [2] of 95 to 100% and a pest or weed control at 3840 g/ha [3] of 60 to 74%. It also gave a pest or weed control at 3840 g/ha [4] of 95 to 100%, a pest or weed control at 3840 g/ha [5] of 45 to 59% and a pest or weed control at 3840 g/ha [6] of 95 to 100%.
`Nc1c(F)c(-c2ccc(OC(F)F)cc2)nc(C(=O)O)c1Cl` [Compound 143] was tested, and the pest or weed control at 4000 g/ha [1] was 95 to 100%, the pest or weed control at 4000 g/ha [2] was 45 to 59% and the pest or weed control at 4000 g/ha [3] was 95 to 100%. It also gave a pest or weed control at 4000 g/ha [4] of 95 to 100% and a pest or weed control at 4000 g/ha [6] of 95 to 100%.
With `COC(=O)c1nc(-c2cccc(F)c2F)c(F)c(N)c1Cl` [Compound 199] the pest or weed control at 4000 g/ha [1] was 95 to 100%, the pest or weed control at 4000 g/ha [2] was 75 to 84% and the pest or weed control at 4000 g/ha [3] was 85 to 94%. It also gave a pest or weed control at 4000 g/ha [4] of 95 to 100% and a pest or weed control at 4000 g/ha [6] of 60 to 74%.
`COC(=O)c1nc(-c2ccccc2F)c(F)c(N)c1Cl` [Compound 206] gave a pest or weed control at 4040 g/ha [1] of 95 to 100%, a pest or weed control at 4040 g/ha [2] of 75 to 84% and a pest or weed control at 4040 g/ha [3] of 0 to 29%. For the same molecule, the pest or weed control at 4040 g/ha ([4]; 4.04 kg ai/ha) was 95 to 100% and the pest or weed control at 4040 g/ha [6] was 0 to 29%.
For `C=Cc1c(C(=O)O)nc(-c2ccc(Cl)c(F)c2)c(F)c1N` [Compound 214], the pest or weed control at 4040 g/ha [1] was 95 to 100%, the pest or weed control at 4040 g/ha [2] was 95 to 100% and the pest or weed control at 4040 g/ha [3] was 85 to 94%. It also gave a pest or weed control at 4040 g/ha ([5]; 4.04 kg ai/ha) of 60 to 74% and a pest or weed control at 4040 g/ha [6] of 95 to 100%.
Molecule `C=Cc1c(C(=O)OC)nc(-c2ccc(Cl)c(F)c2)c(F)c1N` [Compound 215, methyl 4-amino-6-(4-chloro-3-fluorophenyl)-5-fluoro-3-vinylpicolinate] has a pest or weed control at 3960 g/ha [1] of 95 to 100%, a pest or weed control at 3960 g/ha [2] of 95 to 100% and a pest or weed control at 3960 g/ha [3] of 0 to 29%. It also gave a pest or weed control at 3960 g/ha [5] of 30 to 44% and a pest or weed control at 3960 g/ha [6] of 85 to 94%.
